Laboratory results: US8536231B2, “Methods for treating diabetic foot ulcers” (priority 2011, dated 2013)
Non-standard residues stand in square brackets, D forms with d. Residues, ends and D or L forms follow the SMILES beside them. Nle = CCCC[C@H](N)C(=O)O

System: diabetic foot ulcers
Details: human, in vivo
Procedure: The study was designed as a randomized, parallel-group, double-blind, placebo-controlled, multi-center trial. After 14-days of best-of-care to evaluate ulcer healing and ensure the wounds were chronic, four-weeks of active treatment were then followed by eight weeks of observation and assessment. The study compared the effects of two concentrations of NorLeu^3-A(1-7) and placebo, measuring both clinical efficacy and safety. Sustained tissue integrity was evaluated for all subjects during a follow-up period lasting 12 weeks after complete wound closure.
Subjects were randomized in a 1:1:1 ratio to one of the three treatment groups: • Group 1: Placebo Vehicle Control without NorLeu^3-A(1-7) (also referred to as “DSC127”) (2% Hydroxyethyl Cellulose (HEC) with 0.1% methyl paraben, 0.02% propyl paraben) • Group 2: 0.03% NorLeu^3-A(1-7) in Vehicle • Group 3: 0.01% NorLeu^3-A(1-7) in Vehicle
The four-week treatment period required daily application of the treatment to the wound site. The first application each week was at the clinic and for the remainder of the week the patient self-administered the treatment.
If wound healing occurred during the treatment or assessment periods a final assessment visit was conducted and the integrity was assessed 4 and 12 weeks later (usually weeks 16 and 24 of the study). […]

`CCCC[C@H](NC(=O)[C@H](CCCNC(=N)N)NC(=O)[C@@H](N)CC(=O)O)C(=O)N[C@@H](Cc1ccc(O)cc1)C(=O)N[C@H](C(=O)N[C@@H](Cc1c[nH]cn1)C(=O)N1CCC[C@H]1C(=O)O)[C@@H](C)CC` [NorLeu^3-A(1-7), Asp-Arg-Nle-Tyr-Ile-His-Pro] (H-DR[Nle]YIHP-OH; N-terminus and C-terminus assumed) was tested, and the “adverse events associated with treatment” value was “no significant adverse events” and the tolerability was “well-tolerated”.
